A word on the EC50: it is the midpoint of the concentration-response curve.

Read-outs that look alike come from different tables or passages of the source. Where only a bound is given, the exact number is not on record here.

The values that follow come from US7482367B2, “Substituted benzimidazoles and methods of their use” (Novartis Vaccines and Diagnostics, Inc., priority 2005, dated 2009).

In series [1] the test system is SKMEL-2 (wild-type Raf, mutant N-Ras). To be noted: SKMEL-2 cells; 0.1 μM to 10 μM; 4 hours of incubation.
Series [2] deals with human tumor isolate #5. The experiment in a line: cells. The settings on record: Colorectal tumor, K-Ras.
The test system of a further series is human tumor isolate #6. The experiment in a line: cells.
A short description of another series: Plasma protein binding. It counts as in vitro ADME.
Another series relates to Colo205 (cell line). The experiment in a line: cells. The settings on record: Homo sapiens, COLO 205, 168 h.
The subject of the next series is human tumor isolated #7. The experiment in a line: tissue or blood.
Series [3] is classed as in vivo, Nu/Nu mice. To be noted: for Mean body weight loss on day 28: 100 mg/kg per dose. The method, then: Therefore, the most efficacious dosage of 100 mg/kg was further evaluated as described below.
Series [4] relates to HT-29 (B-Raf V600E) colorectal carcinoma tumors. To be noted: HT29, q2 d × 14, oral.
The next series has as its system human tumor isolate #2. The experiment in a line: cells.
Series [5] concerns human tumor isolate #4. To be noted: Pancreatic tumor, K-Ras.
The format of series [6] is in vivo, mice. To be noted: at target plasma concentration, corrected for protein binding.
A further series deals with human tumor isolate #1. The experiment in a line: cells.
For a further series, the system named is HT-29 (cell line). The experiment in a line: cells. To be noted: Homo sapiens, HT-29, 168 h.
The test system of series [7] is human tumor isolate #5. To be noted: Colorectal tumor, K-Ras.
In series [8] the test system is human tumor isolate #4. The experiment in a line: cells. The settings on record: Pancreatic tumor, K-Ras.
The next series has as its system human tumor isolate #3. The experiment in a line: cells.
In another series the test system is WM1799 (cell line). The experiment in a line: cells. The settings on record: WM-1799, 168 h.
Series [9] has as its system SKMEL-28 (mutant B-Raf V600E). The experiment in a line: cells. To be noted: Homo sapiens, SK-MEL-28, read-out: pERK inhibition EC50.
The test system of series [10] is CHL-1 (wild-type Raf, wild-type Ras). The settings on record: CHL-1 cells; 0.1 μM to 10 μM; 4 hours of incubation.

Regarding `Cn1c(Nc2ccc(C(F)(F)F)cc2)nc2cc(Oc3ccnc(-c4ncc(C(F)(F)F)[nH]4)c3)ccc21` [Example 1, {1-Methyl-5-[2-(5-trifluoromethyl-1H-imidazol-2-yl)-pyridin-4-yloxy]-1H-benzoimidazol-2-yl}-(4-trifluoromethyl-phenyl)-amine], the “inhibition of Raf downstream signaling (MEK phosphorylation)” value in series [1] and in series [10] was “potent inhibitor of Raf downstream signaling” in each case. Also, the EC50 in the series on human tumor isolate #5 [2] was ~1000 nM; in the series with human tumor isolate #6 it was > 1000 nM; in the series with Colo205 (cell line), 130 nM; in the series with human tumor isolated #7, > 1000 nM; with human tumor isolate #2 it was 200 nM; in the series on human tumor isolate #4 [5], 1270 nM. Moreover, the EC50 in the series on human tumor isolate #1 was 55 nM; with HT-29 (cell line), 26 nM; with human tumor isolate #5 [7], 1200 nM; in the series with human tumor isolate #4 [8], ~1000 nM; in the series with human tumor isolate #3, 570 nM; with WM1799 (cell line), < 9.8 nM. Besides, in series [9], the EC50 is 100 nM. Further, the “protein bound in plasma” value in “Plasma protein binding” is “greater than 99.9%”. The figures for the “Mean body weight loss on day 28” value in [3] (q2 d), in series [3] (q3 d) and in [3] (q4 d) were 12%, 8% and 7%, respectively. Moreover, the “average loss of starting body weight by day 14” value in series [3] (daily dosing, 30 mg/kg and 100 mg/kg dose levels) is 10%. Further, the TGI/Regression was 12% TGI in [4] (10 mg/kg) and “tumor regression” in series [4] (100 mg/kg). The “rough estimation of free drug concentration” value in series [6] was “approximately 0.135 μM”.
